Experiments:
Assay type in all cases: physicochemical
[1] = Reductive cleavage reaction of F- and NO2-substituted products, NMR (Test Examples 7 and 8); settings: same conditions as in Test Example 5
[2] = Cleavage reaction under cancer cell model condition, NMR (Test Examples 6 and 9)
Experimental: At a concentration of ArS—SrA (H) of the formula (7) (225 μM) assuming a realistic intracellular drug concentration, a GSH concentration of a cancer cell was approximated to 20 mM, and the same measurement was performed.
To prevent a peak of the aromatic region having a low concentration from being overlapped by the peak of CHCl3 contained in CDCl3, the measurement was performed with D2O in the outside the double tube. The overall compound concentration was low and the peak ratio of water was high, and thus, the number of times of integration was increased for measurement to distinguish between the peaks of the compounds and the peak of the baseline.
ArSSrA (F) and ArSSrA (NO2) were subjected to the same test as in Test Example 6 to examine their cleavage reactions in the normal cell model and the cancer cell model. The results of ArSSrA (F) and ArSSrA (NO2) are shown in Table 6 and Table 7, respectively.

[3] = Cleavage reaction under normal cell model condition, NMR (Test Example 5); settings: ArS—SrA 225 μM, GSH 450 μM (normal cell model)
Experimental: ArS—SrA (H) of the formula (7) was administered to a cell model of a GSH concentration assuming a realistic intracellular drug concentration to examine the cleavage reaction of the linker compound.
At an ArS—SrA (H) concentration (225 μM), the GSH concentration of a normal cell was approximated to 450 μM, and the same measurement was performed. To prevent a peak of the aromatic region having a low concentration from being overlapped by the peak of CHCl3 contained in CDCl3, the measurement was performed with D2O in outside the double tube. The overall compound concentration was low and the peak ratio of water was high, and thus, the number of times of integration was increased for measurement to distinguish between the peaks of the compounds and the peak of the baseline.

[4] = Reductive cleavage reaction with GSH in mixed system, NMR (Test Example 4); settings: ArSSrA (H)/GSH=4.4 mM/4.5 mM, 50 mM phosphate buffer
Experimental: As NMR spectrum measurement conditions, GSH of the formula (13) was added to ArSSrA (H) of the formula (7) in a 50 mM phosphate buffer to adjust a solution of ArSSrA (H)/GSH=4.4 mM/4.5 mM, and the measurement by NMR was carried out. A double tube (SHIGEMI Co., Ltd., Model SP-405) was used and a TMS-containing CDCl3 solution (LOCK solvent) was placed in the outside to adjust an NMR tube.
In the NMR measurement, the water elimination (presaturation method) measurement was performed with reference to Casi, G. et al., J. Controlled Release. 2012, 161, 121, 422 to 428, and the like.
(Initial concentration ArSSrA (H)/GSH=4.4 mM/4.5 mM)

[5] = Reductive cleavage reaction with LiBH4 in THF traced by UV spectrum (Test Example 2); settings: 45 μM in THF, 11 equivalents LiBH4, absorption at 242 nm
Experimental: The control of the electron density of the S atom by the substituent was expected from the above NMR results, and thus, a reductive cleavage reaction of the thiophenol-type disulfide linker was actually examined. First, a reaction of a thiophenol derivative model compound (compound of formula (2)) with a reducing agent LiBH4 in an organic solvent THF was carried out as a model reaction (formula (12)) using a UV spectrum which can be easily examined, and a pseudo-first order reaction rate was examined.
As the THF, THF available from Wako Pure Chemical Industries, Ltd., product code 207-17765, super dehydrated, and stabilizer-free was used, and as the cell, a cell of 10 mm×10 mm was used. A reduction reaction of an oxidized form (disulfide) of the compound of the formula (2), which is an unsubstituted model compound, was carried out in the cell. The reaction was carried out using an excess amount (11 equivalents) of LiBH4 relative to the oxidized form of the compound of the formula (2) (45 μM in THF). LiBH4 was adjusted by diluting a commercially available THF 2M solution and used in the reaction.

[6] = ArS—SrA 225 μM, GSH 20 mM (cancer cell model), 100 min.
[7] = ArS—SrA 225 μM, GSH 20 mM (cancer cell model), 100 minutes
[8] = ArS—SrA 225 μM, GSH 20 mM (cancer cell model), 1 day

## O=C(O)c1cc(SSc2ccc([N+](=O)[O-])c(C(=O)O)c2)ccc1[N+](=O)[O-] [ArSSrA (NO2)]
[1]; 100 min.
  ArSH abundance ratio: 51%
  ArS—SG abundance ratio (1st ArS—SG column): 20%
  ArS—SG abundance ratio (2nd ArS—SG column): 39%
  ArS—SrA abundance ratio (remaining disulfide): 29%
  GSH abundance ratio: 30%
  GS—SG abundance ratio: 9%
[1]; 1 day
  ArSH abundance ratio: 48%
  ArS—SG abundance ratio (1st ArS—SG column): 22%
  ArS—SG abundance ratio (2nd ArS—SG column): 45%
  GSH abundance ratio: 4%
  GS—SG abundance ratio: 26%
[2]; 100 min, 225 μM
  ArS—SrA abundance ratio (remaining disulfide): 5%
[2]; 24 h, 225 μM
  ArS—SrA abundance ratio (remaining disulfide): 0%
[2]; [6]
  ArSH abundance ratio: 95%
  ArS—SG abundance ratio (1st ArS—SG column): 0%
  ArS—SG abundance ratio (2nd ArS—SG column): 0%
  GSH abundance ratio: 95%
  GS—SG abundance ratio: 4%
[2]; [7]
  linker disulfide cleaved (dissociated): about 90%
[2]; [8]
  ArSH abundance ratio: 100%
  ArS—SG abundance ratio (1st ArS—SG column): 0%
  ArS—SG abundance ratio (2nd ArS—SG column): 0%
  GSH abundance ratio: 90%
  GS—SG abundance ratio: 10%
  linker disulfide cleaved (dissociated): all

## O=C(O)c1c(F)cccc1SSc1cccc(F)c1C(=O)O [ArSSrA (F)]
[1]; 100 min.
  ArSH abundance ratio: 38%
  ArS—SG abundance ratio (1st ArS—SG column): 20%
  ArS—SG abundance ratio (2nd ArS—SG column): 39%
  ArS—SrA abundance ratio (remaining disulfide): 42%
  GSH abundance ratio: 42%
  GS—SG abundance ratio: 9%
[1]; 1 day
  ArSH abundance ratio: 36%
  ArS—SG abundance ratio (1st ArS—SG column): 21%
  ArS—SG abundance ratio (2nd ArS—SG column): 41%
  GSH abundance ratio: 8%
  GS—SG abundance ratio: 26%
[2]; [6]
  ArSH abundance ratio: 92%
  ArS—SG abundance ratio (1st ArS—SG column): 0%
  ArS—SG abundance ratio (2nd ArS—SG column): 0%
  ArS—SrA abundance ratio (remaining disulfide): 8%
  GSH abundance ratio: 96%
  GS—SG abundance ratio: 3.8%
[2]; [7]
  linker disulfide cleaved (dissociated): about 90%
[2]; [8]
  ArSH abundance ratio: 100%
  ArS—SG abundance ratio (1st ArS—SG column): 0%
  ArS—SG abundance ratio (2nd ArS—SG column): 0%
  ArS—SrA abundance ratio (remaining disulfide): 0%
  GSH abundance ratio: 90%
  GS—SG abundance ratio: 9.5%
  linker disulfide cleaved (dissociated): all

## O=C(O)c1ccccc1SSc1ccccc1C(=O)O [ArSSrA (H)]
[3]; 100 min.
  ArSH abundance ratio: 8.2%
  ArS—SG abundance ratio (1st ArS—SG column): 2%
  ArS—SG abundance ratio (2nd ArS—SG column): 1.8%
  ArS—SrA abundance ratio (remaining disulfide): 89%
  GSH abundance ratio: 88%
  GS—SG abundance ratio: 10%
[3]; 1 day
  ArSH abundance ratio: 3.3%
  ArS—SG abundance ratio (1st ArS—SG column): 24%
  ArS—SG abundance ratio (2nd ArS—SG column): 21%
  ArS—SrA abundance ratio (remaining disulfide): 84%
  GSH abundance ratio (GSH remained): 18%
  GSH consumed: 82%
  GS—SG abundance ratio: 62%
  linker disulfide cleaved: about 16%
[4]; 25 min.
  ArSH abundance ratio: 13%
  ArS—SG abundance ratio (1st ArS—SG column): 3.8%
  ArS—SG abundance ratio (2nd ArS—SG column): 7.2%
  ArS—SrA abundance ratio (remaining disulfide): 83%
  GSH abundance ratio: 74%
  GS—SG abundance ratio: 19%
[4]; 100 min.
  ArSH abundance ratio: 26%
  ArS—SG abundance ratio (1st ArS—SG column): 11%
  ArS—SG abundance ratio (2nd ArS—SG column): 20%
  ArS—SrA abundance ratio (remaining disulfide): 62%
  GSH abundance ratio: 48%
  GS—SG abundance ratio: 32%
[4]; 1 day
  ArSH abundance ratio: 12%
  ArS—SG abundance ratio (1st ArS—SG column): 31%
  ArS—SG abundance ratio (2nd ArS—SG column): 57%
  ArS—SrA abundance ratio (remaining disulfide): 57%
  GSH abundance ratio: 11%
  GS—SG abundance ratio: 32%
[2]; [6]
  ArSH abundance ratio: 82%
  ArS—SG abundance ratio (1st ArS—SG column): 0%
  ArS—SG abundance ratio (2nd ArS—SG column): 0%
  ArS—SrA abundance ratio (remaining disulfide): 19%
  GSH abundance ratio: 97%
  GS—SG abundance ratio: 3.4%
[2]; [7]
  linker disulfide cleaved (dissociated): 82%
[2]; [8]
  ArSH abundance ratio: 100%
  ArS—SG abundance ratio (1st ArS—SG column): 0%
  ArS—SG abundance ratio (2nd ArS—SG column): 0%
  ArS—SrA abundance ratio (remaining disulfide): 0%
  GSH abundance ratio: 91%
  GS—SG abundance ratio: 8.8%
  linker disulfide cleaved (dissociated): 100%

## c1ccc(SSc2ccccc2)cc1 [formula (2)]
[5]
  pseudo first order reaction rate constant k: 1.97×10^−2
